In patent US20050112573A1, “Method of detecting toxic substance” (priority 2001, published 2005):

Tested on: yeast genes (level of expressed mRNA)
Assay: DNA chip analysis of expressed mRNA of yeast genes after 2 h culture with a toxic chemical substance
Format: cell-based, Saccharomyces cerevisiae S288C
Details: for The level of expressed mRNA in the presence of chemical substance/ (ratio to absence of chemical substance): stress protein genes, DNA chip
Experimental: Yeast (Saccharomyces cerevtisiae S288C (α SUC2mal mel gap2 CUP1)) were cultured at 25° C. on YPD medium (yeast extract 1%, polypepton 2%, glucose 2%). One of toxic chemical substances was added to the cell at logarithmic growth phase, and the cell was further cultured for two hours. Cell was cultured without any chemical substance in the same condition, and was used as control. Concentrations of the chemical substances were defined to inhibit the growth of the yeast but not lead to death.
After the completion of cultivation, the culture was centrifuged to collect the cells. To the cells, sodium acetate buffer (50 mM sodium acetate, 10 mM EDTA, 1% SDS) was added, and the mixture was shaken at 65° C. for five minutes, followed by returning to room temperature, and obtaining the supernatant, which procedure was repeated two times. To the supernatant, ½ amount of a solution of phenol/chloroform was added, and the mixture was centrifuged to give a supernatant, which was added with an equal amount of chloroform, and the mixture was centrifuged to give a supernatant. To the supernatant, an equal amount of isopropanol containing 0.3 M sodium acetate was added, and the mixture was allowed to stand at room temperature for 30 minutes, after which the mixture was centrifuged to give a sediment of the whole RNAs. Seventy % ethanol was added to the sediment, and the mixture was again centrifuged to give a sediment, which was then dried and dissolved in water. mRNA was isolated from the whole RNAs as followings. In view of the fact that a poly A chain is attached to the 3′ terminus of mRNA, a polynucleotide having a poly T structure which was immobilized on the surface of latex beads was used to trap the mRNA, and then the mRNA was washed and eluted with spine column (Oligotex-dT30<Super>mRNA Purification Kit, Takara). Reverse transcription of the mRNA was conducted with a reverse transcriptase (Super Script II Reverse Transcriptase; catalogue No. 18064-014, GibcoBRL) using fluorescence-labeled nucleotides to give cDNAs that were introduced with Cy3-dUTP or Cy5-dUTP during the reverse transcription.
The labeled cDNAs were dissolved in TE buffer (10 mM Tris-HCl/1 mM EDTA, pH8.0), and the solution was dropped on the DNA chip containing the whole genes of yeast (DNA Chip Research Inc. Japan) so that the cDNAs were hybridized on the DNA chip at 65° C. for over 12 hours. The fluoresces intensity of the DNA chip was read with a scanner, and the ratio relative to the fluorescence intensity resulting from the absence of chemical substance was estimated as the following, which is shown in Tables 1 to 9: [formula]
In the Tables, “Intensity” indicated in the rightmost column is a value of the level of expressed mRNA of each gene in control cells as divided by the average level of the expressions of the whole genes.

**Q.** For `C=CC=O` [(14), acrolein], which “The level of expressed mRNA in the presence of chemical substance/absence: YOR267C” value (gene YOR267C) is on record?
**A.** Its value is 0.9.

**Q.** And the “The level of expressed mRNA in the presence of chemical substance/absence: YOR325W” value (gene YOR325W)?
**A.** The value was 1.3.

**Q.** What about the “level of expressed mRNA in the presence of chemical substance/in its absence” value (from here on “level … of chemical substance/in its absence”) (gene YOR336W) of the same compound?
**A.** Its value is 1.1.

**Q.** And the “level … of chemical substance/in its absence” value (gene YOR344C)?
**A.** Its value is 0.6.

**Q.** And the “level … of chemical substance/in its absence” value (gene YOR347C)?
**A.** The value was 0.9.

**Q.** And the “The level of expressed mRNA in the presence of chemical substance/absence: YPL005W” value (gene YPL005W)?
**A.** Its value is 1.0.

**Q.** What about the “level … of chemical substance/in its absence” value (gene YPL017C) of the same compound?
**A.** The value was 1.6.

**Q.** What about the “The level of expressed mRNA in the presence of chemical substance / the level in the absence of chemical substance, yeast gene YPL107W” value (gene YPL107W, DNA chip fluorescence ratio to control without chemical, 2 hours culture with chemical, growth-inhibiting non-lethal concentration) of the same compound?
**A.** The value was 1.7.

**Q.** And the “The level of expressed mRNA in the presence of chemical substance / the level in the absence of chemical substance, yeast gene YPL138C” value (gene YPL138C, DNA chip fluorescence ratio to control without chemical, 2 hours culture with chemical, growth-inhibiting non-lethal concentration)?
**A.** Its value is 1.3.

**Q.** What about the “The level of expressed mRNA in the presence of chemical substance/absence: YPL150W” value (gene YPL150W) of the same compound?
**A.** The value was 1.0.

**Q.** And the “The level of expressed mRNA in the presence of chemical substance/absence: YPL151C” value (gene YPL151C)?
**A.** The value was 0.9.

**Q.** And the “The level of expressed mRNA in the presence of chemical substance/absence: YPL152W” value (gene YPL152W)?
**A.** Its value is 1.2.

**Q.** And the “The level of expressed mRNA in the presence of chemical substance/absence: YPL168W” value (gene YPL168W)?
**A.** Its value is 1.0.

**Q.** What about the “The level of expressed mRNA in the presence of chemical substance/absence: YPL180W” value (gene YPL180W) of the same compound?
**A.** Its value is 1.0.

**Q.** What about the “The level of expressed mRNA in the presence of chemical substance/absence: YPL188W” value (gene YPL188W) of the same compound?
**A.** The value was 1.4.

**Q.** What about the “The level of expressed mRNA in the presence of chemical substance/absence: YPL221W” value (gene YPL221W) of the same compound?
**A.** The value was 0.8.

**Q.** And the “The level of expressed mRNA in the presence of chemical substance/absence: YPL225W” value (gene YPL225W)?
**A.** Its value is 1.4.

**Q.** And the “The level of expressed mRNA in the presence of chemical substance/absence: YPL249C” value (gene YPL249C)?
**A.** Its value is 1.0.

**Q.** And the “The level of expressed mRNA in the presence of chemical substance/absence: YPL260W” value (gene YPL260W)?
**A.** Its value is 1.1.

**Q.** And the “level … of chemical substance/in its absence” value (gene YPL265W)?
**A.** Its value is 1.1.

**Q.** And the “level … of chemical substance/in its absence” value (gene YPR006C)?
**A.** Its value is 1.2.

**Q.** And the “level … of chemical substance/in its absence” value (gene YPR026W)?
**A.** The value was 1.5.

**Q.** And the “The level of expressed mRNA in the presence of chemical substance/absence: YPR049C” value (gene YPR049C)?
**A.** Its value is 1.4.

**Q.** And the “The level of expressed mRNA in the presence of chemical substance/absence: YPR061C” value (gene YPR061C)?
**A.** The value was 1.7.

**Q.** And the “The level of expressed mRNA in the presence of chemical substance/absence: YPR093C” value (gene YPR093C)?
**A.** The value was 1.1.

**Q.** And the “The level of expressed mRNA in the presence of chemical substance/absence: YPR146C” value (gene YPR146C)?
**A.** Its value is 0.9.

**Q.** And the “The level of expressed mRNA in the presence of chemical substance/absence: YPR148C” value (gene YPR148C)?
**A.** Its value is 1.1.

**Q.** And the “The level of expressed mRNA in the presence of chemical substance/absence: YPR150W” value (gene YPR150W)?
**A.** Its value is 1.4.

**Q.** And the “The level of expressed mRNA in the presence of chemical substance/absence: YPR158W” value (gene YPR158W)?
**A.** The value was 1.1.

**Q.** What about the “The level of expressed mRNA in the presence of chemical substance/absence: YPR169W” value (gene YPR169W) of the same compound?
**A.** Its value is 1.0.

**Q.** And the “The level of expressed mRNA in the presence of chemical substance/absence: YPR172W” value (gene YPR172W)?
**A.** Its value is 1.6.

**Q.** What about the “The level of expressed mRNA in the presence of chemical substance/absence: YPR174C” value (gene YPR174C) of the same compound?
**A.** The value was 0.9.

**Q.** And the “The level of expressed mRNA in the presence of chemical substance/The level of expressed mRNA in the absence of chemical substance” value (yeast gene YAR010C)?
**A.** Its value is 1.0.

**Q.** What about the “The level of expressed mRNA in the presence of chemical substance/The level of expressed mRNA in the absence of chemical substance” value (yeast gene YBL005W-A) of the same compound?
**A.** Its value is 1.4.

**Q.** What about the “The level of expressed mRNA in the presence of chemical substance/ (ratio to absence), gene YBL038W” value (yeast gene YBL038W, mitochondria-located protein genes, 2 h culture with chemical) of the same compound?
**A.** The value was 2.3.

**Q.** What about the “The level of expressed mRNA in the presence of chemical substance/The level of expressed mRNA in the absence of chemical substance” value (yeast gene YBL041W) of the same compound?
**A.** Its value is 2.0.

**Q.** And the “The level of expressed mRNA in the presence of chemical substance/The level of expressed mRNA in the absence of chemical substance” value (yeast gene YBL043W)?
**A.** Its value is 1.9.

**Q.** And the “The level of expressed mRNA in the presence of chemical substance/The level of expressed mRNA in the absence of chemical substance” value (yeast gene YBL078C)?
**A.** The value was 3.6.

**Q.** And the “The level of expressed mRNA in the presence of chemical substance/ (ratio to absence of chemical substance)” value (yeast gene YBL093C)?
**A.** The value was 1.0.

**Q.** And the “The level of expressed mRNA in the presence of chemical substance/ (in its absence), gene YBR036C” value (yeast gene YBR036C, ratio of DNA chip fluorescence intensity to that without chemical substance)?
**A.** The value was 0.8.

**Q.** What about the “The level of expressed mRNA in the presence of chemical substance/ (ratio to absence of chemical substance)” value (yeast gene YBR044C) of the same compound?
**A.** The value was 0.9.

**Q.** And the “The level of expressed mRNA in the presence of chemical substance/ (ratio to absence), gene YBR122C” value (yeast gene YBR122C, mitochondria-located protein genes, 2 h culture with chemical)?
**A.** Its value is 1.2.

**Q.** And the “The level of expressed mRNA in the presence of chemical substance/The level of expressed mRNA in the absence of chemical substance” value (yeast gene YBR214W)?
**A.** Its value is 0.9.

**Q.** And the “The level of expressed mRNA in the presence of chemical substance/ (ratio to absence), gene YBR251W” value (yeast gene YBR251W, mitochondria-located protein genes, 2 h culture with chemical)?
**A.** The value was 1.6.

**Q.** What about the “The level of expressed mRNA in the presence of chemical substance/ (in its absence), gene YBR298C” value (yeast gene YBR298C, ratio of DNA chip fluorescence intensity to that without chemical substance) of the same compound?
**A.** Its value is 0.9.

**Q.** And the “The level of expressed mRNA in the presence of chemical substance/The level of expressed mRNA in the absence of chemical substance” value (yeast gene YCL020W)?
**A.** Its value is 1.7.

**Q.** And the “The level of expressed mRNA in the presence of chemical substance/The level of expressed mRNA in the absence of chemical substance” value (yeast gene YCL027W)?
**A.** The value was 1.2.

**Q.** And the “The level of expressed mRNA in the presence of chemical substance/The level of expressed mRNA in the absence of chemical substance” value (yeast gene YCR004C)?
**A.** The value was 3.7.

**Q.** And the “The level of expressed mRNA in the presence of chemical substance/ (ratio to absence), gene YCR046C” value (yeast gene YCR046C, mitochondria-located protein genes, 2 h culture with chemical)?
**A.** The value was 1.3.

**Q.** And the “The level of expressed mRNA in the presence of chemical substance/The level of expressed mRNA in the absence of chemical substance” value (yeast gene YCR071C)?
**A.** The value was 1.7.

**Q.** And the “The level of expressed mRNA in the presence of chemical substance/ (ratio to absence), gene YCR083W” value (yeast gene YCR083W, mitochondria-located protein genes, 2 h culture with chemical)?
**A.** Its value is 2.4.

**Q.** And the “The level of expressed mRNA in the presence of chemical substance/ (ratio to absence of chemical substance)” value (yeast gene YCR083W)?
**A.** Its value is 2.4.

**Q.** And the “The level of expressed mRNA in the presence of chemical substance/The level of expressed mRNA in the absence of chemical substance” value (yeast gene YCR088W)?
**A.** The value was 0.9.

**Q.** What about the “The level of expressed mRNA in the presence of chemical substance/The level of expressed mRNA in the absence of chemical substance” value (yeast gene YDL008W) of the same compound?
**A.** Its value is 2.2.

**Q.** And the “The level of expressed mRNA in the presence of chemical substance/ in its absence, gene YDL067C” value (yeast gene YDL067C, energy system protein genes, 2 h culture with the chemical, ratio to control without chemical)?
**A.** The value was 1.4.

**Q.** And the “The level of expressed mRNA in the presence of chemical substance/ (ratio to absence), gene YDL067C” value (yeast gene YDL067C, mitochondria-located protein genes, 2 h culture with chemical)?
**A.** Its value is 1.4.

**Q.** What about the “The level of expressed mRNA in the presence of chemical substance/ in its absence, gene YDL078C” value (yeast gene YDL078C, energy system protein genes, 2 h culture with the chemical, ratio to control without chemical) of the same compound?
**A.** Its value is 0.8.
